These results are taken from the supplement of paper PMC11208160.
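Also: IS621 bridge recombinase in Escherichia coli cells against a fixed T5 target plasmid.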

This series is described as follows: recombinant UMI read abundance after kanamycin selection (control-corrected) (log10(CPM+1)); higher = more efficient recombination; extreme values may be limits of the assay; sequences stand for … in AGTGCAGAGAAAATCGGCCAGTTTTCTCTGCCTGCAGTCCGCATGCCGTGGGACCCCTTGGGTTCTAACCTGTTGCCTAGATTTATGCAGCGGACTGCCTTTCTCCCAAAGTGATAAACCGG…AGGTTGGTTTCACT; site = the 11-nt donor. The gist of the method:
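Sequencing read counts were converted to CPM, averaged over two replicates and scaled by control-derived factors. Results are given as log10(CPM+1). The reads covered the donor–target junction of recombinant UMIs from a pooled Escherichia coli screen of donor and donor-binding-loop pairs for the IS621 bridge recombinase.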
In the case of “CCCAGATCATGGACCGGTTTTCCCGGTAATCCGTATTTGTC (site CCCAGATCTGA)”, the “recombinant UMI read abundance (log10)” value amounted to 0.

Regarding “CCCAGATCATGGACCGGTTTTCCCGGTAATCCGTATTTGTC (site CCCATATCTGA)”, the “recombinant UMI read abundance (log10)” value came out at 0.

With “CCCATAACATGGACCGGTTTTCCCGGTAATCCGTATTTGTC (site CCCATAACTGA)”, the “recombinant UMI read abundance (log10)” value worked out at 0.

Turning to “CCCATAACATGGACCGGTTTTCCCGGTAATCCGTATTTGTC (site CCCATACCTGA)”, the “recombinant UMI read abundance (log10)” value is 0.

Regarding “CCCATAACATGGACCGGTTTTCCCGGTAATCCGTATTTGTC (site CCCATAGCTGA)”, the “recombinant UMI read abundance (log10)” value worked out at 0.

In the case of “CCCATAACATGGACCGGTTTTCCCGGTAATCCGTATTTGTC (site CCCATATCTGA)”, the “recombinant UMI read abundance (log10)” value was found to be 0.

In the case of “CCCATACCATGGACCGGTTTTCCCGGTAATCCGTATTTGTC (site CCCATAACTGA)”, the “recombinant UMI read abundance (log10)” value was determined as 0.

Turning to “CCCATACCATGGACCGGTTTTCCCGGTAATCCGTATTTGTC (site CCCATACCTGA)”, the “recombinant UMI read abundance (log10)” value stood at 0.

On to “CCCATACCATGGACCGGTTTTCCCGGTAATCCGTATTTGTC (site CCCATAGCTGA)”, for which the “recombinant UMI read abundance (log10)” value worked out at 0.

Consider “CCCATACCATGGACCGGTTTTCCCGGTAATCCGTATTTGTC (site CCCATATCTGA)”, for which the “recombinant UMI read abundance (log10)” value amounted to 0.

As to “CCCATATCATGGACCGGTTTTCCCGGTAATCCGTATTTGAC (site CCCATATCTGA)”, the “recombinant UMI read abundance (log10)” value amounted to 0.

For the sequence “CCCATATCATGGACCGGTTTTCCCGGTAATCCGTATTTGAC (site CCCATATCTGC)”, the “recombinant UMI read abundance (log10)” value worked out at 0.

On to “CCCATATCATGGACCGGTTTTCCCGGTAATCCGTATTTGAC (site CCCATATCTGG)”, for which the “recombinant UMI read abundance (log10)” value was determined as 0.

As to “CCCATATCATGGACCGGTTTTCCCGGTAATCCGTATTTGAC (site CCCATATCTGT)”, the “recombinant UMI read abundance (log10)” value amounted to 0.446.

Consider “CCCATCTCATGGACCGGTTTTCCCGGTAATCCGTATTTGTA (site CCCATCTCTTA)”, for which the “recombinant UMI read abundance (log10)” value stood at 1.97.

For “CCCCACACATGGACCGGTTTTCCCGGTAATCCGTATTTGTC (site CCCCACACTAA)”, the “recombinant UMI read abundance (log10)” value is 0.316.

In the case of “CCCCACACATGGACCGGTTTTCCCGGTAATCCGTATTTGTC (site CCCCACACTCA)”, the “recombinant UMI read abundance (log10)” value turned out to be 0.235.

In the case of “CCCCACACATGGACCGGTTTTCCCGGTAATCCGTATTTGTC (site CCCCACACTGA)”, the “recombinant UMI read abundance (log10)” value came to 2.39.

For “CCCCACACATGGACCGGTTTTCCCGGTAATCCGTATTTGTC (site CCCCACACTTA)”, the “recombinant UMI read abundance (log10)” value is 0.335.

Take “CCCCACACATGGACCGGTTTTCCCGGTAATCCGTATTTGTT (site CCCCACACTAA)”: the “recombinant UMI read abundance (log10)” value stood at 0.634.

For the sequence “CCCCACACATGGACCGGTTTTCCCGGTAATCCGTATTTGTT (site CCCCACACTCA)”, the “recombinant UMI read abundance (log10)” value turned out to be 0.35.

In the case of “CCCCACACATGGACCGGTTTTCCCGGTAATCCGTATTTGTT (site CCCCACACTGA)”, the “recombinant UMI read abundance (log10)” value is 0.246.

As for “CCCCACACATGGACCGGTTTTCCCGGTAATCCGTATTTGTT (site CCCCACACTTA)”, the “recombinant UMI read abundance (log10)” value was 0.396.

In the case of “CCCCGAGCATGGACCGGTTTTCCCGGTAATCCGTATTTGCA (site CCCCGAGCTTG)”, the “recombinant UMI read abundance (log10)” value turned out to be 0.798.

For the sequence “CCCCGCACATGGACCGGTTTTCCCGGTAATCCGTATTTGGA (site CCCCGCACTTC)”, the “recombinant UMI read abundance (log10)” value worked out at 0.0136.

“CCCCTATCATGGACCGGTTTTCCCGGTAATCCGTATTTGTC (site CCCATATCTGA)”: the “recombinant UMI read abundance (log10)” value was 0.

Consider “CCCCTATCATGGACCGGTTTTCCCGGTAATCCGTATTTGTC (site CCCCTATCTGA)”, for which the “recombinant UMI read abundance (log10)” value came to 1.82.

Consider “CCCCTATCATGGACCGGTTTTCCCGGTAATCCGTATTTGTC (site CCCGTATCTGA)”, for which the “recombinant UMI read abundance (log10)” value is 0.

For the sequence “CCCCTATCATGGACCGGTTTTCCCGGTAATCCGTATTTGTC (site CCCTTATCTGA)”, the “recombinant UMI read abundance (log10)” value is 0.

Take “CCCGACTCATGGACCGGTTTTCCCGGTAATCCGTATTTGAA (site CCCGACTCTTT)”: the “recombinant UMI read abundance (log10)” value is 1.35.

On to “CCCGATCCATGGACCGGTTTTCCCGGTAATCCGTATTTGCA (site CCCGATCCTTG)”, for which the “recombinant UMI read abundance (log10)” value was found to be 0.

Consider “CCCGATCCATGGACCGGTTTTCCCGGTAATCCGTATTTGCA (site CCCGCTCCTTG)”, for which the “recombinant UMI read abundance (log10)” value stood at 0.

Turning to “CCCGATCCATGGACCGGTTTTCCCGGTAATCCGTATTTGCA (site CCCGGTCCTTG)”, the “recombinant UMI read abundance (log10)” value was found to be 0.

“CCCGATCCATGGACCGGTTTTCCCGGTAATCCGTATTTGCA (site CCCGTTCCTTG)”: the “recombinant UMI read abundance (log10)” value amounted to 0.

Consider “CCCGCTCCATGGACCGGTTTTCCCGGTAATCCGTATTTGCA (site CCCGATCCTTG)”, for which the “recombinant UMI read abundance (log10)” value turned out to be 0.

As to “CCCGCTCCATGGACCGGTTTTCCCGGTAATCCGTATTTGCA (site CCCGCTCCTTG)”, the “recombinant UMI read abundance (log10)” value is 0.

As for “CCCGCTCCATGGACCGGTTTTCCCGGTAATCCGTATTTGCA (site CCCGGTCCTTG)”, the “recombinant UMI read abundance (log10)” value worked out at 0.

Regarding “CCCGCTCCATGGACCGGTTTTCCCGGTAATCCGTATTTGCA (site CCCGTTCCTTG)”, the “recombinant UMI read abundance (log10)” value was found to be 0.

On to “CCCGGACCATGGACCGGTTTTCCCGGTAATCCGTATTTGCA (site CCCGGACCTTG)”, for which the “recombinant UMI read abundance (log10)” value worked out at 0.

With “CCCGGACCATGGACCGGTTTTCCCGGTAATCCGTATTTGCA (site CCCGGCCCTTG)”, the “recombinant UMI read abundance (log10)” value was found to be 0.

Consider “CCCGGACCATGGACCGGTTTTCCCGGTAATCCGTATTTGCA (site CCCGGGCCTTG)”, for which the “recombinant UMI read abundance (log10)” value is 0.

“CCCGGACCATGGACCGGTTTTCCCGGTAATCCGTATTTGCA (site CCCGGTCCTTG)”: the “recombinant UMI read abundance (log10)” value is 0.0045.

Take “CCCGGTCCATGGACCGGTTTTCCCGGTAATCCGTATTTGCG (site CCCGGTCCTAG)”: the “recombinant UMI read abundance (log10)” value amounted to 0.

As to “CCCGGTCCATGGACCGGTTTTCCCGGTAATCCGTATTTGCG (site CCCGGTCCTCG)”, the “recombinant UMI read abundance (log10)” value stood at 0.

Regarding “CCCGGTCCATGGACCGGTTTTCCCGGTAATCCGTATTTGCG (site CCCGGTCCTGG)”, the “recombinant UMI read abundance (log10)” value was 0.

In the case of “CCCGGTCCATGGACCGGTTTTCCCGGTAATCCGTATTTGCG (site CCCGGTCCTTG)”, the “recombinant UMI read abundance (log10)” value was 0.

In the case of “CCCGGTCCATGGACCGGTTTTCCCGGTAATCCGTATTTGGA (site CCCGGTCCTTA)”, the “recombinant UMI read abundance (log10)” value was 0.00376.

For “CCCGGTCCATGGACCGGTTTTCCCGGTAATCCGTATTTGGA (site CCCGGTCCTTC)”, the “recombinant UMI read abundance (log10)” value amounted to 0.0256.

Turning to “CCCGGTCCATGGACCGGTTTTCCCGGTAATCCGTATTTGGA (site CCCGGTCCTTG)”, the “recombinant UMI read abundance (log10)” value was found to be 0.

With “CCCGGTCCATGGACCGGTTTTCCCGGTAATCCGTATTTGGA (site CCCGGTCCTTT)”, the “recombinant UMI read abundance (log10)” value is 0.0436.

For the sequence “CCCGGTTCATGGACCGGTTTTCCCGGTAATCCGTATTTGCT (site CCCGGTTCTAG)”, the “recombinant UMI read abundance (log10)” value worked out at 0.

“CCCTATCCATGGACCGGTTTTCCCGGTAATCCGTATTTGCC (site CCCTAACCTGG)”: the “recombinant UMI read abundance (log10)” value was 0.
